Data from patent US9493485B2, “Spirocyclic dihydro-thiazine and dihydro-oxazine BACE inhibitors, and compositions and uses thereof” (Imago Pharmaceuticals, Inc., priority 2012, dated 2016).
Where two headings read alike, the source gives them in different places.

Legend:
BACE1 [1] = target: T1, BACE1 (Homo sapiens (Human), UniProt P56817); test: BACE1 FP assay; format: biochemical; conditions: pH 4.5
Experimental: (§1) BACE1 activity can be assessed in an AlphaScreen® assay. Compounds to be assessed (e.g. compounds as described in the above examples) are serially diluted 1:4 in DMSO, then plated by diluting 10 μL of compound with 40 μl of assay buffer (1×PBS, 0.01% Tween-20, pH 7.0, 0.05% BSA). The diluted compound is transferred (4 μL per well) to a 386 well assay plate and 4 μL of BACE1 enzyme ([…]) is added and incubated for 15 minutes. This assay uses a probe that is a BACE1 binding sight ligand linked to biotin, which can be displaced by test compound dependent on compound binding affinity. This of biotinylated probe (4 μL) is added and incubated for 1 hour, followed with 4 μL of donor and acceptor bead mixture and incubated for 2 hours. The fluorescent signal is read on a plate reader and the value as a function of compound concentration is used to determine the IC50. Compounds are also assessed for BACE1 and Cathepsin D activity using an FP Assay. Compounds to be assessed (e.g. compounds as described in the above examples) are serially diluted 1:3 with DMSO and each concentration point is transferred to a 96 well plate, 6 μL per well, followed by addition of 194 μL of assay buffer (100 mM sodium acetate, pH 4.5 with 0.001% Tween-20). A 10 μL compound sample from this plate is transferred to a well of a 384 well plate and combined with 10 μL per well of BACE1 enzyme (0.3 nM in assay buffer) or Cathepsin D enzyme (1.8 nM in assay buffer) and the plate is incubated at room temperature for 30 minutes.

Cathepsin D = Cathepsin D (Homo sapiens (Human), UniProt P07339); test: Cathepsin D FP assay; format: biochemical; conditions: pH 4.5, read-out: CatD FP IC50
Chain of Cathepsin D (P07339 65-412, species assumed): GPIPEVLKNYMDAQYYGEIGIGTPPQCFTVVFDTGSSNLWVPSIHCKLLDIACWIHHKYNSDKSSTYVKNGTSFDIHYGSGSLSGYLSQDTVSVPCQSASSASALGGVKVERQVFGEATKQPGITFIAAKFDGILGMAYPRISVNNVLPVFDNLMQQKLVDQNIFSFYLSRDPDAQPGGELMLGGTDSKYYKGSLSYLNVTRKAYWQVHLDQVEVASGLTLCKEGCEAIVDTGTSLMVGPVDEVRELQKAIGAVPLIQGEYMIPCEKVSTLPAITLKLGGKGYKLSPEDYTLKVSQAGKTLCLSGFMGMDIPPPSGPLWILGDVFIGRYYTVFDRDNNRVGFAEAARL
Experimental: as §1

[2] = tested on: BACE1 inhibition in HEKp293 cells transfected with APP751 gene (SWE293); test: SWE293 cellular assay: reduction of Aβ peptide production, ELISA; format: cell-based; conditions: Homo sapiens, read-out: SWE293 ED50
Experimental: BACE1 inhibition is also assessed in a cellular assay. HEKp293 cells transfected with APP751 gene (SWE293, American Type Culture Collection CRL-1563) are used to assess compounds for reduction in levels of Aβ peptide production. SWE293 cell medium is DMEM supplemented with 10% fetal bovine serum and 2 mM L-glutamine, 1.0 mM sodium pyruvate, 25 mM Hepes Buffer, 0.4 mg/mL geneticin (G418, Gibco BRL 860-181IIJ). Cells are maintained diluting 1:10 for 4 days in T-150 flask and 35 mL of cell media. For plating, cells are rinsed with 5 mL of 1×PBS, trypsinized with 4 mL of 0.05% Tripsin for 1 minute, and 12 mL of cell media is added. These are centrifuged at 1000 rpm for 4 minutes and the media aspirated, then 8 mL of media per flask is added. Based on cell count, appropriate amounts of cell and cell media are combined, and 180 μl per well are plated (96 well) and the plates are incubated overnight at 37° C., 5% CO2. Compounds to be tested are serially diluted 1:3 in DMSO and twice in media (without G418) in V-bottom plates and incubated at room temperature. Plated cells are washed with media, 3×50 μL per well and 17 μL per well of appropriate dilution of compound is added. Plates are incubated for 2 hours, and the wash steps, compound addition and incubation are repeated. Sample is transferred to capture plate (prepared with 266 antibody, see e.g. Johnson-Wood et al., PNAS February 1997, 94: 1550-1555), along with a standard curve of Aβ-40. ELISA assay is used to assess Aβ levels, washing with TBS, 0.05% Tween20 pH 7.5, then adding 1.3 mg/mL 3D6 antibody 1:900 in specimen diluents with thimericol is added (100 μl per well) and incubated for 1 hour. Wash step is repeated and Streptavidin-AP diluted 1:1000 in specimen diluents with thimerisol is added (100 μL per well) and incubated for 1 hour. Wash step is repeated and fluorescent substrate is added, 100 μL per well and incubated for 10 minutes followed by reading the fluorescent signal on a plate reader.

BACE1 [3] = target: T1, BACE1; test: BACE1 AlphaScreen assay (displacement of biotinylated BACE1 binding site probe); conditions: read-out: BACE1 AS IC50
Experimental: as §1

[4] = dose at which Aβ level is reduced by 50%, HEKp293 SWE293 cells

T1 sequence (P56817 46-501): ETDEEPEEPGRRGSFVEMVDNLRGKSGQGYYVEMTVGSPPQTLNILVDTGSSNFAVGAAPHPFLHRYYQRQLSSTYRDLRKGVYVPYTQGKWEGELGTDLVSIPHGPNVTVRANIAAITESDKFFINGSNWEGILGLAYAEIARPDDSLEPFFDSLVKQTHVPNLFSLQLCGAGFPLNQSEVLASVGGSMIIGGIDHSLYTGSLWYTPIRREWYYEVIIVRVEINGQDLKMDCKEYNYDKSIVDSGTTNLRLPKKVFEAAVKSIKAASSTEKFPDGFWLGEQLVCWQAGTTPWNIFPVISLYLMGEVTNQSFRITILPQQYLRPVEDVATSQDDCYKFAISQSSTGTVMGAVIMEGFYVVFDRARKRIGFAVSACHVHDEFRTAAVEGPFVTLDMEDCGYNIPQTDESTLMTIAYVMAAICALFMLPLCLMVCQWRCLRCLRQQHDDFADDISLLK

Compound | IC50 (BACE1 [1]) [nM] | IC50 (Cathepsin D) [nM] | IC50 [2] [nM] | IC50 (BACE1 [3]) [nM] | IC50 [2, 4] [nM]
CC#Cc1cncc(-c2csc(C3(C)CC4(CCOCC4)OC(N)=N3)c2)c1 (centres unmarked) [Compound 8-102, 4-methyl-4-(4-(5-(prop-1-ynyl)pyridin-3-yl)thiophen-2-yl)-1,9-dioxa-3-azaspiro[5.5]undec-2-en-2-amine] | 2290 | 4430 | 365 | 69 | –
CC#Cc1cncc(-c2csc(C3(C)CC4(CCC4)OC(N)=N3)c2)c1 (centres unmarked) [Compound 8-103, 8-methyl-8-(4-(5-(prop-1-ynyl)pyridin-3-yl)thiophen-2-yl)-5-oxa-7-azaspiro[3.5]non-6-en-6-amine] | 1360 | 7920 | – | 30 | 582
CC#Cc1cncc(-c2csc([C@]3(C)CC4(CCOCC4)OC(N)=N3)c2)c1 [Compound 8-104, (S)-4-methyl-4-(4-(5-(prop-1-ynyl)pyridin-3-yl)thiophen-2-yl)-1,9-dioxa-3-azaspiro[5.5]undec-2-en-2-amine] | 406 | 14800 | 157 | 16 | –
CC#Cc1cncc(-c2csc([C@@]3(C)CC4(CCOCC4)OC(N)=N3)c2)c1 [Compound 8-105, (R)-4-methyl-4-(4-(5-(prop-1-ynyl)pyridin-3-yl)thiophen-2-yl)-1,9-dioxa-3-azaspiro[5.5]undec-2-en-2-amine] | 84900 | 5250 | 7470 | 1330 | –
CC1(c2cc(-c3cncnc3)ccc2F)CC2(CCOCC2)OC(N)=N1 (centres unmarked) [Compound 8-106, 4-(2-fluoro-5-(pyrimidin-5-yl)phenyl)-4-methyl-1,9-dioxa-3-azaspiro[5.5]undec-2-en-2-amine] | 12600 | > 30000 | – | 569 | 673
CC#Cc1cncc(-c2csc(C3(C)CC4(COC4)SC(N)=N3)c2)c1 (centres unmarked) [Compound 8-112, 8-methyl-8-(4-(5-(prop-1-ynyl)pyridin-3-yl)thiophen-2-yl)-2-oxa-5-thia-7-azaspiro[3.5]non-6-en-6-amine] | 227 | – | – | 17 | 222
C[C@@]1(c2cc(NC(=O)c3ccc(C(F)(F)F)cn3)ccc2F)CC2(CCC(F)(F)CC2)OC(N)=N1 [Compound 9-132, (S)—N-(3-(2-amino-9,9-difluoro-4-methyl-1-oxa-3-azaspiro[5.5]undec-2-en-4-yl)-4-fluorophenyl)-5-(trifluoromethyl)picolinamide] | – | – | 11 | 6 | –
C[C@@]1(c2cc(NC(=O)C3CC3)ccc2F)CC2(CCC(F)(F)CC2)OC(N)=N1 [Compound 9-134, (S)—N-(3-(2-amino-9,9-difluoro-4-methyl-1-oxa-3-azaspiro[5.5]undec-2-en-4-yl)-4-fluorophenyl)cyclopropanecarboxamide] | 2330 | – | – | 801 | 882
C[C@@]1(c2cc(NC(=O)c3ccc(C4CC4)cn3)ccc2F)CC2(CCC(F)(F)CC2)OC(N)=N1 [Compound 9-137, (S)—N-(3-(2-amino-9,9-difluoro-4-methyl-1-oxa-3-azaspiro[5.5]undec-2-en-4-yl)-4-fluorophenyl)-5-cyclopropylpicolinamide] | 1830 | – | – | 17 | 88
COc1cc(Cl)ccc1C(=O)Nc1ccc(F)c([C@]2(C)CC3(CCC3)OC(N)=N2)c1 [Compound 9-140, (S)—N-(3-(6-amino-8-methyl-5-oxa-7-azaspiro[3.5]non-6-en-8-yl)-4-fluorophenyl)-4-chloro-2-methoxybenzamide] | 9110 | – | 342 | 101 | –
CC1(c2cc(NC(=O)c3ccc(F)cn3)ccc2F)CC2(CCCCC2)SC(N)=N1 (centres unmarked) [Compound 9-142, N-(3-(2-amino-4-methyl-1-thia-3-azaspiro[5.5]undec-2-en-4-yl)-4-fluorophenyl)-5-fluoropicolinamide] | – | – | – | – | 12
C[C@]1(c2cc(NC(=O)c3ccc(F)cn3)ccc2F)CC2(CCOCC2)SC(N)=N1 [Compound 9-149, (R)—N-(3-(2-amino-4-methyl-9-oxa-1-thia-3-azaspiro[5.5]undec-2-en-4-yl)-4-fluorophenyl)-5-fluoropicolinamide] | 8490 | 21500 | – | > 1000 | –
C[C@]1(c2cc(NC(=O)c3ccc(Cl)cn3)ccc2F)CC2(CCOCC2)SC(N)=N1 [Compound 9-152, (R)—N-(3-(2-amino-4-methyl-9-oxa-1-thia-3-azaspiro[5.5]undec-2-en-4-yl)-4-fluorophenyl)-5-chloropicolinamide] | 1560 | 10800 | – | – | –
COc1cnc(C(=O)Nc2ccc(F)c([C@]3(C)CC4(CCOCC4)SC(N)=N3)c2)cn1 [Compound 9-153, (S)—N-(3-(2-amino-4-methyl-9-oxa-1-thia-3-azaspiro[5.5]undec-2-en-4-yl)-4-fluorophenyl)-5-methoxypyrazine-2-carboxamide] | 33 | > 30000 | – | – | < 123
C[C@@]1(c2cc(NC(=O)c3ccc(F)cn3)ccc2F)N=C(N)OC2(CCOCC2)C1(F)F [Compound 9-156, (S)—N-(3-(2-amino-5,5-difluoro-4-methyl-1,9-dioxa-3-azaspiro[5.5]undec-2-en-4-yl)-4-fluorophenyl)-5-fluoropicolinamide] | > 30000 | – | > 30000 | > 30000 | –
C[C@@]1(c2cc(NC(=O)c3ccc(C#N)cn3)ccc2F)N=C(N)OC2(CCC2)C1(F)F [Compound 9-163, (S)—N-(3-(6-amino-9,9-difluoro-8-methyl-5-oxa-7-azaspiro[3.5]non-6-en-8-yl)-4-fluorophenyl)-5-cyanopicolinamide] | 38100 | – | > 30000 | 13400 | –
COc1cnc(C(=O)Nc2ccc(F)c(C3(C)N=C(N)OC4(CCC4)C3(F)F)c2)cn1 (centres unmarked) [Compound 9-164, N-(3-(6-amino-9,9-difluoro-8-methyl-5-oxa-7-azaspiro[3.5]non-6-en-8-yl)-4-fluorophenyl)-5-methoxypyrazine-2-carboxamide] | – | > 30000 | – | – | 195
C[C@@]1(c2cc(NCc3ccc(F)cn3)ccc2F)CC2(CCC2)OC(N)=N1 [Compound 10-169, (S)-8-(2-fluoro-5-((5-fluoropyridin-2-yl)methylamino)phenyl)-8-methyl-5-oxa-7-azaspiro[3.5]non-6-en-6-amine] | 179000 | – | 5610 | 3720 | –
C[C@@]1(c2cc(Nc3ncnc4cc(Cl)ccc34)ccc2F)CC2(CCC2)OC(N)=N1 [Compound 11-173, (S)-8-(5-(7-chloroquinazolin-4-ylamino)-2-fluorophenyl)-8-methyl-5-oxa-7-azaspiro[3.5]non-6-en-6-amine] | 8550 | – | – | – | 687
C[C@@]1(c2cc(/C=C/c3ccc(F)cc3)ccc2F)CC2(CCC2)OC(N)=N1 [Compound 12-177, (S,E)-8-(2-fluoro-5-(4-fluorostyryl)phenyl)-8-methyl-5-oxa-7-azaspiro[3.5]non-6-en-6-amine] | 21700 | – | 1210 | 1160 | –
C[C@@]1(c2cc(/C=C/c3ccc(Cl)cc3)ccc2F)CC2(CCC2)OC(N)=N1 [Compound 12-179, (S,E)-8-(5-(4-chlorostyryl)-2-fluorophenyl)-8-methyl-5-oxa-7-azaspiro[3.5]non-6-en-6-amine] | 4640 | – | – | 510 | 1340
